These results are taken from US20040076659A1, “Additive for livestock feeds” (priority 1994, published 2004).

Series [1] can be described thus: Accelerated oxidation, Rancimat test of Polysorbate 80 coating on silica. The series is classed as physicochemical. Here is the method: Solid silica particles (LuctaCarrier™ silica, Lucta, S. A., Barcelona, Spain) are coated 50% wt/wt (based of the combined weight of the particles and coating) with a mixture of polyethylene 20 sorbitan monooleate (Polysorbate 80) and an amount of the antioxidants set forth in the tables, below, or no antioxidant as a control. The solid antioxidants (e.g., BHA or BHT) are dissolved in a suitable solvent (e.g., ethyl alcohol) and then mixed with the Polysorbate 80 at the listed concentration levels. The oxidative stability of the coating is then determined using the Rancimat test. Oxidative stability relates to how easily components of oil oxidize which creates off-flavors in the oil, and is measured by instrumental analysis using accelerated oxidation methods. American Oil Chemists' Society Official Method Cd 12-57 for Fat Stability: Active Oxygen Method (re'vd 1989); Rancimat (Laubli, M. W. and Bruttel, P. A., JOACS 63:792-795 (1986)); Joyner, N. T. and J. E. McIntyre, Oil and Soap (1938) 15:184 (modification of the Schaal oven test). The Rancimat method has been developed as the automated version of the AOM method (active oxygen method) for the determination of the induction time of fats and oils. In this method the highly volatile organic acids produced by autoxidation are absorbed in water and used to indicate the induction time. As used in the following tables, the abbreviations have the following meanings: […]

A short description of series [2]: Shelf life test, sensory panel rancidity score at 40° C. The series is classed as physicochemical. To be noted: 1000 ppm. Here is the method: The nonionic surfactant polyoxyethylene 20 sorbitan monooleate (Polysorbate 80) is coated in an amount of 50% wt/wt onto silica particles (i.e., in the proportion 50 g. of Polysorbate 80 per 50 g. of silica), either without (control) or with added antioxidant. A shelf life test is performed by measuring, using a sensory panel, the level of rancid odor of samples stored at 40° C., with a rancidity score being assigned to each sample (with a score of 0 for no rancid odors and 10 for highest level of rancid odors. The results are shown in Table 13, below.

In another series the test system is rumen cellulase activity. Put plainly: In vitro cellulose degradation by rumen bacterial inoculum. The class given is biochemical, cows. Particulars: 0.25% surfactant in reaction mixture; regression on initial 24 hr. Here is the method: A bacterial fraction, largely free of protozoa, was prepared for the fermentation assays by using the procedure of Forsberg, “Some Effects of Arsenic on the Rumen Microflora; An In Vitro Study,” Can. J. Microbiol. 24:36 (1978). The digesta inoculum was resuspended and washed twice in an equivalent amount of 0.1 M phosphate buffer pH 6.8 to the rumen fluid. The inoculum provided both, the substrate and the enzyme used for cellulose degradation assay. Incubation periods were 0, 1.5, 3, 6, 12, 24, and 48 hr. Other incubation conditions were similar to those outlined in experiment 1 above. However, cellulose was determined by the method of Updergraff, supra, for the in vivo digestibility trial. The optimal level of Tween 80 obtained was adopted here and followed.

The conditions of series [3]: Griffin et al., 1972; cited from earlier work.
For series [4], the system named is rumen microbial proteinases. Put plainly: Protease activity of mixed rumen microbial cell enzyme source (casein substrate). The series is classed as biochemical, cows. Here is the method:
Two rumen-fistulated, nonlactating cows averaging 623±12.5 kg in weight were fed 5 kg dry matter (DM) of low quality timothy hay twice daily. About 2.5L of rumen fluid was collected through the fistula 4 hrs after the morning feeding at 07:00 hrs. Bulk feed particles were removed by sieving the fluid through a 0.5 mm strain. The fluid was then composited and then stored in a prewarmed (37° C.) thermal container.
A microbial powder was prepared using the acetone-butanol extraction procedure outlined by Mahadevan et al., “Preparation of protease from mixed rumen microorganisms and its use for the in vitro determination of true protein in feedstuffs,” Can. J. Anim. Sci. 67:55 (1987). About 500 g of this powder was prepared and stored at −20° C. Extraction of the proteases was accomplished by stirring 250 g of the powder with 1L of 4° C. cold water (for 1 hr) and then proceeding along Mahadevan's extraction procedure. Only extracts from the filtration with an XM-300 Amicon Filter, (approx. 300 000 molecular weight cutoff—under nitrogen gas), were made, washed twice with distilled water and the retentate freeze dried. This was referred to as the mixed microbial cell enzyme source. It was used in the protein adhesion tests and also in the parallel thiol and protease activity determinations.
Ten grams of the mixed microbial cell enzyme was dissolved in 100 ml warm (37° C.) 0.1 M phosphate buffer, pH 6.8, and used as an enzyme inoculant. The assay matrix consisted of 1 ml enzyme source, 1 ml 2% casein solution, 1 ml 01 M phosphate buffer and 1 ml of either the relevant level of surfactant or an equivalent amount of buffer. Ten levels of the two surfactants, polyoxyethylene sorbitan monoleate (Tween 80) and polyoxyethylene sorbitan monastearate (Tween 60) were tested, viz 0, 0.08, 0.16, 0.24, 0.32, 0.4, 0.8, 1.2, 1.6, and, 2.0% surfactant in the assay mixture.
The protease activity incubations were performed in 50 ml plastic centrifuge tubes, at 37° C. and under a stream of carbon dioxide gas. After 1.5 hr, 1 ml of the assay mixture was removed for the determination of thiols (SH) and disulfides (SS) (Sasago et al., “Determination of sulfhydryl and disulfide groups in milk by p-chloromercuribenzoate-diathizone method,” J. Dairy Sci. 46:1348-1351 (1963)). At the end of 2 hr incubation, the reaction was stopped with 1 ml of 15% TCA (trichloroacetic acid) solution, cooled to 4° C. under an icebath, and centrifuged at 10,000 for 10 min. The free amino acids in the supernatant were assayed using the ninhydrin method (Rosen, “a Modified Colorimetric Analysis For Amino Acids,” Arch. Biochim. Biophys. 67:10 (1957)). The optimal surfactant inclusion level was calculated by direct linear plots on the assumption that the Michaellis-Menten equation applied.

[5] abbreviates: direct linear plots, Michaelis-Menten assumed.

With `Cc1cc(C(C)(C)C)c(O)c(C(C)(C)C)c1` [BHT, butylated hydroxytoluene], the “Rancimat Stability” value worked out at 1.75 h in series [1] (Table 7, 200 ppm in Polysorbate 80 coating on silica); 1.85 h in series [1] (Table 8, 200 ppm); 4.45 h in series [1] (Table 9, 200 ppm); 6.15 h in series [1] (Table 10, 200 ppm).

Turning to `CCOc1ccc2c(c1)C(C)=CC(C)(C)N2` [EQ, ethoxyquin], the “Rancidity Score” value is reported as 1.0 in series [2] (1 week, score 0 (no rancid odors) to 10); 2.0 in series [2] (2 weeks); 3.5 in series [2] (6 weeks); 5.0 in series [2] (10 weeks).

Take “polyoxyethylene sorbitan monastearate [Tween 60]”: in the series with rumen cellulase activity, the “Initial rate of cellulose degradation” value is reported as 0.87b (0.28) μg/ml/hr. Further, in series [3], the “HLB (hydrophile-lipophile balance)” value is on record as 14.9. The “Initial rate of proteinase activation” value in series [4] (control=0) was 98.04%. Besides, in series [4] (setting [5]), the “Km (additive conc.), proteinase activation” value came to 0.28 ± 0.02a % and the “Vmax (maximum proteinase activation)” value was 99.2 ± 2.7a %/unit additive conc.
